{
  "source": "patent US5607970A",
  "about": "“ACAT inhibitory agent” (priority 1991, dated 1997)",
  "key": {"[1]": {"molecular_target": "T1, ACAT (AcylCoA-Cholesterolacyltransferase) (Oryctolagus cuniculus, UniProt G1SFD9)", "T1 construct": "from tissue; host or cells: rabbit small intestine epithelium, microsome fraction", "T1 sequence (G1SFD9 1-524)": "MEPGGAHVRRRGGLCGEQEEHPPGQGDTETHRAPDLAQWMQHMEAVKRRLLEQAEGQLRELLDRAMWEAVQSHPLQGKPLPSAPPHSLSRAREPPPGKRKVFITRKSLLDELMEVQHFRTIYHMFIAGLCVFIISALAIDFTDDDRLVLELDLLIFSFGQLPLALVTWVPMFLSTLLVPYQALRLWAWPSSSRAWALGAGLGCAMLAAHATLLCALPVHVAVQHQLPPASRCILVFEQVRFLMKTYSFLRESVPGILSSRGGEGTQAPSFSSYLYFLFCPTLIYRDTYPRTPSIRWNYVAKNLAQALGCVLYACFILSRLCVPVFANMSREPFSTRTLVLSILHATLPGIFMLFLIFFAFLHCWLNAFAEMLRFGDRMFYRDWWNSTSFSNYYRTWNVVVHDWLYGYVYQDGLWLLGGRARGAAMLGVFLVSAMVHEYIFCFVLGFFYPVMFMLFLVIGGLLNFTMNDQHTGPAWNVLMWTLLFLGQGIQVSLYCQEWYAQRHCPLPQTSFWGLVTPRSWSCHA", "experiment": "ACAT inhibitory activity in test tube (method of Heider et al., [1-14C]oleylCoA, small intestine epithelium microsome fraction)", "type": "biochemical, rabbit", "conditions": "read-out: Inhibitory Ratio (%)", "procedure": "That is, a rabbit is fed a 1% cholesterol diet for 3 weeks followed by dissection and extraction of the small intestine. After peeling off the small intestine epithelium and crushing with a homogenizer, incompletely crushed solids are removed by centrifugal separation. […] After allowing the reaction to proceed for the prescribed amount of time, 7 ml of a mixture of dichloromethane: methanol (2:1) is added to the reaction mixture and thoroughly mixed. The reaction, is stopped and the dichloromethane layer is removed, after which the cholesterol oleate portion is separated from that fraction by silica gel TLC (developing solution: petroleum ether:diethyl ether=95:5). The separated portion is scraped off and the radioactivity is measured using a liquid scintillation counter to calculate ACAT activity."}, "[2]": {"system": "ACAT activity of small intestine epithelial cells", "experiment": "Animal test: ACAT activity of small intestine epithelial cells after administration in feed", "type": "in vivo", "conditions": "male hamsters, 1 mg/animal/day mixed in feed", "procedure": "A test substance according to the present invention was administered to hamsters (males, body weight: 100 g) at a dose of 1 mg/animal/day by mixing in the same to their feed. The ACAT activity of small intestine epithelial cells was then measured after one week and after two weeks."}, "[3]": {"conditions": "Concentration 20 μg/ml, rabbit small intestine microsome ACAT"}, "[4]": {"conditions": "Concentration 50 μg/ml, rabbit small intestine microsome ACAT"}, "[5]": {"conditions": "Concentration 100 μg/ml, rabbit small intestine microsome ACAT"}, "[6]": {"conditions": "Concentration 150 μg/ml, rabbit small intestine microsome ACAT"}, "[7]": {"conditions": "Concentration 200 μg/ml, rabbit small intestine microsome ACAT"}},
  "note": "Like-named read-outs stand apart in the source and are kept apart here.",
  "data": [
    {"smiles": "CCCCC/C=C\\C/C=C\\CCCCCCCC(=O)OCC(O)CO", "note": "(stereo not shown)", "values": [
      {"measurement": "inhibition at 20 µg/mL", "setting": "[1]; [3]", "result": 28, "unit": "%"},
      {"measurement": "inhibition at 50 µg/mL", "setting": "[1]; [4]", "result": 54, "unit": "%"},
      {"measurement": "inhibition at 100 µg/mL", "setting": "[1]; [5]", "result": 74, "unit": "%"},
      {"measurement": "inhibition at 150 µg/mL", "setting": "[1]; [6]", "result": 86, "unit": "%"},
      {"measurement": "inhibition at 200 µg/mL", "setting": "[1]; [7]", "result": 93, "unit": "%"},
      {"measurement": "ACAT Inhibitory Ratio (%) After 1 week", "setting": "[2]", "result": 59, "unit": "%"},
      {"measurement": "ACAT Inhibitory Ratio (%) After 2 weeks", "setting": "[2]", "result": 53, "unit": "%"}
    ]},
    {"smiles": "CCCCCCCC/C=C\\CCCCCCCC(=O)OCC(O)CO", "note": "(stereo not shown)", "values": [
      {"measurement": "inhibition at 20 µg/mL", "setting": "[1]", "result": 30, "unit": "%"},
      {"measurement": "inhibition at 50 µg/mL", "setting": "[1]", "result": 59, "unit": "%"},
      {"measurement": "inhibition at 100 µg/mL", "setting": "[1]", "result": 81, "unit": "%"},
      {"measurement": "inhibition at 150 µg/mL", "setting": "[1]", "result": 92, "unit": "%"},
      {"measurement": "inhibition at 200 µg/mL", "setting": "[1]", "result": 100, "unit": "%"},
      {"measurement": "ACAT Inhibitory Ratio (%) After 1 week", "setting": "[2]", "result": 60, "unit": "%"},
      {"measurement": "ACAT Inhibitory Ratio (%) After 2 weeks", "setting": "[2]", "result": 52, "unit": "%"}
    ]},
    {"smiles": "CCCCCCCC/C=C\\CCCCCCCC(=O)OC(CO)CO", "values": [
      {"measurement": "inhibition at 20 µg/mL", "setting": "[1]", "result": 32, "unit": "%"},
      {"measurement": "inhibition at 50 µg/mL", "setting": "[1]", "result": 62, "unit": "%"},
      {"measurement": "inhibition at 100 µg/mL", "setting": "[1]", "result": 82, "unit": "%"},
      {"measurement": "inhibition at 150 µg/mL", "setting": "[1]", "result": 94, "unit": "%"},
      {"measurement": "inhibition at 200 µg/mL", "setting": "[1]", "result": 100, "unit": "%"},
      {"measurement": "ACAT Inhibitory Ratio (%) After 1 week", "setting": "[2]", "result": 64, "unit": "%"},
      {"measurement": "ACAT Inhibitory Ratio (%) After 2 weeks", "setting": "[2]", "result": 56, "unit": "%"}
    ]},
    {"smiles": "CC/C=C\\C/C=C\\C/C=C\\CCCCCCCC(=O)OCC(O)CO", "note": "(stereo not shown) [1-linolenoylglycerol]", "values": [
      {"measurement": "inhibition at 20 µg/mL", "setting": "[1]", "result": 25, "unit": "%"},
      {"measurement": "inhibition at 50 µg/mL", "setting": "[1]", "result": 50, "unit": "%"},
      {"measurement": "inhibition at 100 µg/mL", "setting": "[1]", "result": 76, "unit": "%"},
      {"measurement": "inhibition at 150 µg/mL", "setting": "[1]", "result": 86, "unit": "%"},
      {"measurement": "inhibition at 200 µg/mL", "setting": "[1]", "result": 92, "unit": "%"},
      {"measurement": "ACAT Inhibitory Ratio (%) After 1 week", "setting": "[2]", "result": 57, "unit": "%"},
      {"measurement": "ACAT Inhibitory Ratio (%) After 2 weeks", "setting": "[2]", "result": 51, "unit": "%"}
    ]},
    {"smiles": "CCCCCC/C=C\\CCCCCCCC(=O)OCC(O)CO", "note": "(stereo not shown) [1-palmitooleylglycerol]", "values": [
      {"measurement": "inhibition at 20 µg/mL", "setting": "[1]; [3]", "result": 24, "unit": "%"},
      {"measurement": "inhibition at 50 µg/mL", "setting": "[1]; [4]", "result": 53, "unit": "%"},
      {"measurement": "inhibition at 100 µg/mL", "setting": "[1]; [5]", "result": 72, "unit": "%"},
      {"measurement": "inhibition at 150 µg/mL", "setting": "[1]; [6]", "result": 84, "unit": "%"},
      {"measurement": "inhibition at 200 µg/mL", "setting": "[1]; [7]", "result": 91, "unit": "%"},
      {"measurement": "ACAT Inhibitory Ratio (%) After 1 week", "setting": "[2]", "result": 57, "unit": "%"},
      {"measurement": "ACAT Inhibitory Ratio (%) After 2 weeks", "setting": "[2]", "result": 54, "unit": "%"}
    ]},
    {"smiles": "CCCCCCCCCCCCCCCC(=O)OCC(O)CO", "note": "(stereo not shown) [1-palmitoylglycerol]", "values": [
      {"measurement": "inhibition at 20 µg/mL", "setting": "[1]; [3]", "result": 26, "unit": "%"},
      {"measurement": "inhibition at 50 µg/mL", "setting": "[1]; [4]", "result": 56, "unit": "%"},
      {"measurement": "inhibition at 100 µg/mL", "setting": "[1]; [5]", "result": 75, "unit": "%"},
      {"measurement": "inhibition at 150 µg/mL", "setting": "[1]; [6]", "result": 86, "unit": "%"},
      {"measurement": "inhibition at 200 µg/mL", "setting": "[1]; [7]", "result": 94, "unit": "%"},
      {"measurement": "ACAT Inhibitory Ratio (%) After 1 week", "setting": "[2]", "result": 56, "unit": "%"},
      {"measurement": "ACAT Inhibitory Ratio (%) After 2 weeks", "setting": "[2]", "result": 50, "unit": "%"}
    ]},
    {"smiles": "CCCCCCCCCCCCCCCCCC(=O)OCC(O)CO", "note": "(stereo not shown) [1-stearoylglycerol]", "values": [
      {"measurement": "inhibition at 20 µg/mL", "setting": "[1]", "result": 15, "unit": "%"},
      {"measurement": "inhibition at 50 µg/mL", "setting": "[1]", "result": 29, "unit": "%"},
      {"measurement": "inhibition at 100 µg/mL", "setting": "[1]", "result": 38, "unit": "%"},
      {"measurement": "inhibition at 150 µg/mL", "setting": "[1]", "result": 45, "unit": "%"},
      {"measurement": "inhibition at 200 µg/mL", "setting": "[1]", "result": 49, "unit": "%"},
      {"measurement": "ACAT Inhibitory Ratio (%) After 1 week", "setting": "[2]", "result": 31, "unit": "%"},
      {"measurement": "ACAT Inhibitory Ratio (%) After 2 weeks", "setting": "[2]", "result": 29, "unit": "%"}
    ]}
  ]
}
